According to article PMC4308718 (Nature Communications, 2015):

Experiments:
AtPHT4;4 = molecular target: T1, AtPHT4;4 (Arabidopsis thaliana, UniProt Q8GX78); assay: inhibition of […]-ascorbate uptake into proteoliposomes, […] min; assay type: biochemical; conditions: 1 and 10 μM inhibitor; 100 μM ascorbate; 2 μM valinomycin; pH 7.0; 27 °C
T1 construct: gene PHT4; cDNA from ATG; His-tag and soluble alpha-helix protein (beta) at both ends, beta-pET-28a(+)-beta; E. coli C43(DE3); purified by Ni-NTA; proteoliposomes
T1 sequence (Q8GX78 1-541): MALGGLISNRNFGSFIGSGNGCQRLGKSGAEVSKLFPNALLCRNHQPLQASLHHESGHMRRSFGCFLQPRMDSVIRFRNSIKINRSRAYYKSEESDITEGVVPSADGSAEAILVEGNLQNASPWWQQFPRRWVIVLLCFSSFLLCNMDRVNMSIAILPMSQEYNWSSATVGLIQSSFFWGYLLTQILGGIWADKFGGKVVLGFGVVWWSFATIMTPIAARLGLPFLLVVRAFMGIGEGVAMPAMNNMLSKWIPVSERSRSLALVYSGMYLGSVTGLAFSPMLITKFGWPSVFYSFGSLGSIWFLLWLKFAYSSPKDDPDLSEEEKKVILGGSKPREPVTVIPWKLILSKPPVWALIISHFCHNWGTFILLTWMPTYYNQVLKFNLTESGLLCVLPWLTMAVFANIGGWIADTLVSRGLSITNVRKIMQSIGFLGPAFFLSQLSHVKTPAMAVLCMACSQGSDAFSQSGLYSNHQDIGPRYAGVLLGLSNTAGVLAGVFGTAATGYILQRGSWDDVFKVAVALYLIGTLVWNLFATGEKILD

AtPHT4;6 = molecular target: T2, AtPHT4;6 (Arabidopsis thaliana, UniProt Q9FKV1); conditions: labelled compound (32P); 100 μM phosphate; 0.1 M sodium acetate; pH 7.0
T2 construct: gene ANTR5

AtPHT4;5 = molecular target: T3, AtPHT4;5 (Arabidopsis thaliana, UniProt Q3E9A0); conditions: labelled compound (32P); 100 μM phosphate; 0.1 M sodium acetate; pH 7.0
T3 construct: gene ANTR6

AtPHT4;3 = molecular target: T4, AtPHT4;3 (Arabidopsis thaliana, UniProt Q66GI9); conditions: labelled compound (32P); 100 μM phosphate; 0.1 M sodium acetate; pH 7.0
T4 construct: gene ANTR4

purified protein = substrate: O=C1O[C@H]([C@@H](O)CO)C(O)=C1O; assay: purified protein; conditions: labelled compound (14C), valinomycin-induced inside-positive membrane potential, 4 mM KCl, pH 7.0, 27 °C

T2 sequence (Q9FKV1 whole entry): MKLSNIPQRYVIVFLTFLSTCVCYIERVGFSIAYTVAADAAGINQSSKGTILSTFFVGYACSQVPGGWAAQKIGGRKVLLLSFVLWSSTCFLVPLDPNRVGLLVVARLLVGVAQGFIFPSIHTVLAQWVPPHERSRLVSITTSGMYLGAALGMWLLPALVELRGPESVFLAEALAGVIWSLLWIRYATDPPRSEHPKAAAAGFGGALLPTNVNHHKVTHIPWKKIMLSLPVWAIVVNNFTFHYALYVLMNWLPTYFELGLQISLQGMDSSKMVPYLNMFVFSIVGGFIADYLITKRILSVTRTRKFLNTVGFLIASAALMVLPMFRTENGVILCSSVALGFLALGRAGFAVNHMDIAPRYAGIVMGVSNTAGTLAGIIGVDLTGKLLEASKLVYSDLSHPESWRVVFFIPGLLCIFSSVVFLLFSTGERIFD
T3 sequence (Q3E9A0 whole entry): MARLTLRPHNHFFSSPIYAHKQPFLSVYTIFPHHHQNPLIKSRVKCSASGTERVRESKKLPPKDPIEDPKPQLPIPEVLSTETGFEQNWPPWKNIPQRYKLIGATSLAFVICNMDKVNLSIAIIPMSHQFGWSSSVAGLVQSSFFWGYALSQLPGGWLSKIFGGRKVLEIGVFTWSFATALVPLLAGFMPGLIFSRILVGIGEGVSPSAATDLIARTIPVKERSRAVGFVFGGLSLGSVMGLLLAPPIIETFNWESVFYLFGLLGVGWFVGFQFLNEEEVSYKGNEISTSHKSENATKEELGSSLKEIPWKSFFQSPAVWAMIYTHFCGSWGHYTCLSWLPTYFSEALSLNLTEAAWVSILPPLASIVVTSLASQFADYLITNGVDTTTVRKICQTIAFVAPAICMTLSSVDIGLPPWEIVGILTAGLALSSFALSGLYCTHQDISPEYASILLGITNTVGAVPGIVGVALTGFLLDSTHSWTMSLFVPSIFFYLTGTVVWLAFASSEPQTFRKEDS
T4 sequence (Q66GI9 whole entry): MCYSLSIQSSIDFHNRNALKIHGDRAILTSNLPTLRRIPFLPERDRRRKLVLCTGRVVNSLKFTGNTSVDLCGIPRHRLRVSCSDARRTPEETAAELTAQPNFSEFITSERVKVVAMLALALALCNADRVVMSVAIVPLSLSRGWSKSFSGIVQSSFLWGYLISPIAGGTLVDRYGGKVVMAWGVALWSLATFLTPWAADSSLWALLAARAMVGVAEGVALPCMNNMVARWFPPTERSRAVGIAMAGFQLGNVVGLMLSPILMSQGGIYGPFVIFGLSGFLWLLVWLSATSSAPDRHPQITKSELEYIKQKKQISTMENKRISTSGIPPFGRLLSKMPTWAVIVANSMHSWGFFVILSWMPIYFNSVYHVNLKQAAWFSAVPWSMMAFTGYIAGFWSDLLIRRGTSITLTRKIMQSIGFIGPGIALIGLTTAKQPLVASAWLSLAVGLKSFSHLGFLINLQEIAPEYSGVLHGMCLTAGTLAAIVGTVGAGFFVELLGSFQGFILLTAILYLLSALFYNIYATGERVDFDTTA

In the case of O=S(=O)(O)c1cc(N=C=S)ccc1/C=C/c1ccc(N=C=S)cc1S(=O)(=O)O [4,4′-diisothiocyano-2,2′-stilbenedisulphonic acid], the “inhibition of 14C-ascorbate uptake into proteoliposomes, 1 min” value (AtPHT4;4) is reported as “typical inhibitors of mammalian SLC17 family transporters, inhibited ascorbate uptake”.

With Cc1cc(-c2ccc(/N=N/c3ccc4c(S(=O)(=O)O)cc(S(=O)(=O)O)c(N)c4c3O)c(C)c2)ccc1/N=N/c1ccc2c(S(=O)(=O)O)cc(S(=O)(=O)O)c(N)c2c1O [Evans blue] the “inhibition of 14C-ascorbate uptake into proteoliposomes, 1 min” value (AtPHT4;4) was “typical inhibitors of mammalian SLC17 family transporters, inhibited ascorbate uptake”.

With O=P(O)(O)O [inorganic phosphate] the “Na+-driven 32P-phosphate uptake into proteoliposomes, 2 min” value (AtPHT4;6) was “Na^+/Pi transport activity was detected in proteoliposomes containing all of these transporters”, the “Na+-driven 32P-phosphate uptake into proteoliposomes, 2 min” value (AtPHT4;5) was “Na^+/Pi transport activity was detected in proteoliposomes containing all of these transporters” and the “Na+-driven 32P-phosphate uptake into proteoliposomes, 2 min” value (AtPHT4;3) was “Na^+/Pi transport activity was detected in proteoliposomes containing all of these transporters”.

B1: AtPHT4;4 (Arabidopsis thaliana) (protein)
chain: T1 sequence (Q8GX78 1-541)
B1 showed a Km (purified protein) of 1200 µM.
